Reference: ChEMBL document CHEMBL2396547, “Anticancer effects of a novel class rosin-derivatives with different mechanisms” (Bioorg Med Chem Lett, 2013)
The source made the active and inactive calls. The rule behind the calls is not given here.

Columns and labels:
[1] = system: EJ; assay: Induction of apoptosis in human EJ cells assessed as decrease in procaspase-3 level at 5 uM after 24 hrs by Western blot analysis; assay type: functional, cell-based
[2] = system: EJ; assay: Induction of apoptosis in human EJ cells assessed as caspase-8 activation at 5 uM after 24 hrs by Western blot analysis; assay type: functional, cell-based
[3] = system: EJ; assay: Induction of apoptosis in human EJ cells assessed as decrease in procaspase-9 level at 5 uM after 24 hrs by Western blot analysis; assay type: functional, cell-based
[4] = system: EJ; assay: Induction of apoptosis in human EJ cells assessed as increase in cytosolic cytochrome c level at 5 uM after 24 hrs by Western blot analysis; assay type: functional, cell-based
[5] = system: EJ; assay: Induction of apoptosis in human EJ cells assessed as viable cells at 5 uM after 24 hrs by annexin V-FITC/propidium iodide staining-based flow cytometric analysis (reference value: 99.6%); assay type: functional; conditions: read-out: Activity
[6] = system: EJ; assay: Induction of apoptosis in human EJ cells assessed as early apoptotic cells at 5 uM after 24 hrs by annexin V-FITC/propidium iodide staining-based flow cytometric analysis (reference value: 0.01 to 0.04%); assay type: functional
[7] = system: EJ; assay: Induction of apoptosis in human EJ cells assessed as late apoptotic cells at 5 uM after 24 hrs by annexin V-FITC/propidium iodide staining-based flow cytometric analysis (reference value: 0.08 to 0.22%); assay type: functional
[8] = system: EJ; assay: Induction of apoptosis in human EJ cells assessed as necrotic cells at 5 uM after 24 hrs by annexin V-FITC/propidium iodide staining-based flow cytometric analysis (reference value: 0.28 to 0.30%); assay type: functional
[9] = system: EJ; assay: Induction of apoptosis in human EJ cells assessed as nuclear condensation at 5 uM after 24 hrs by Hoechst 33342 staining-based confocal microscopic analysis; assay type: functional, cell-based
[10] = system: EJ; assay: Induction of apoptosis in human EJ cells assessed as formation of apoptotic bodies at 5 uM after 24 hrs by Hoechst 33342 staining-based confocal microscopic analysis; assay type: functional, cell-based
[11] = system: EJ; assay: Induction of necrosis in human EJ cells assessed as disruption of membrane integrity at 15 uM after 1 hr by propidium iodide uptake assay; assay type: functional, cell-based
[12] = Hemolytic activity in mouse RBC at 100 uM after 1 hr by ELISA relative to control; assay type: ADME, cell-based, Erythrocyte; conditions: for hemolysis at 1 h, 100 µM: mouse red blood cells, read-out: Activity; for Activity: erythrocyte, 1 h, 100 µM
[13] = system: Jurkat; assay: Cytotoxicity against human Jurkat cells assessed as growth inhibition after 72 hrs by MTT assay; assay type: functional, cell-based
[14] = system: EJ; assay: Cytotoxicity against human EJ cells assessed as cell death at 10 to 20 uM after 1 hr by MTT assay; assay type: functional, cell-based
[15] = system: HeLa; assay: Cytotoxicity against human HeLa cells assessed as growth inhibition after 72 hrs by MTT assay; assay type: functional, cell-based
[16] = system: EJ; assay: Cytotoxicity against human EJ cells assessed as growth inhibition after 72 hrs by MTT assay; assay type: functional, cell-based
[17] = system: 5637; assay: Cytotoxicity against human 5637 cells assessed as growth inhibition after 72 hrs by MTT assay; assay type: functional, cell-based; conditions: Homo sapiens, 5637, 72 h
[18] = system: PC-3; assay: Cytotoxicity against human PC3 cells assessed as growth inhibition after 72 hrs by MTT assay; assay type: functional, cell-based; conditions: PC-3, 72 h
[19] = system: EJ; assay: Induction of apoptosis in human EJ cells assessed as disruption of mitochondria with frequent fusion between great number of vaculoes at 5 uM after 24 hrs by transmission electron microscopic analysis; assay type: functional, cell-based
[20] = system: EJ; assay: Induction of apoptosis in human EJ cells assessed as nuclear fragmentation at 5 uM after 24 hrs by transmission electron microscopic analysis; assay type: functional, cell-based
[21] = system: EJ; assay: Induction of apoptosis in human EJ cells assessed as peripheral nuclear chromatin condensation at 5 uM after 24 hrs by transmission electron microscopic analysis; assay type: functional, cell-based
[22] = system: EJ; assay: Induction of apoptosis in human EJ cells assessed as cristae swelling at 5 uM after 24 hrs by transmission electron microscopic analysis; assay type: functional, cell-based
[23] = system: EJ; assay: Induction of apoptosis in human EJ cells assessed as mitochondrial matrix condensation at 5 uM after 24 hrs by transmission electron microscopic analysis; assay type: functional, cell-based
[24] = system: EJ; assay: Induction of necrosis in human EJ cells assessed as disruption of membrane integrity measuring loss of microvilli at 15 uM after 1 hr by scanning electron microscopic analysis; assay type: functional, cell-based
[25] = system: EJ; assay: Induction of necrosis in human EJ cells assessed as disruption of membrane integrity measuring pore formation at 15 uM after 1 hr by scanning electron microscopic analysis; assay type: functional, cell-based
[26] = system: EJ; assay: Cytotoxicity against human EJ cells assessed as cell death up to 20 uM measured within 1 hr by MTT assay; assay type: functional, cell-based
[27] = system: EJ; assay: Cytotoxicity against human EJ cells assessed as cell death at 5 to 20 uM after 24 hrs by MTT assay; assay type: functional, cell-based

Row | SMILES | Activity [1] | Activity [2] | Activity [3] | Activity [4] | viability at 5 µM [5] | Activity [6] | Activity [7] | Activity [8] | Activity [9] | Activity [10] | Activity [11] | IC50 [13] | IC50 [15] | IC50 [16] | IC50 [17] | IC50 [18] | also measured
1 | CC(C)c1ccc2c(c1)CC[C@H]1[C@](C)(CN)CCC[C@]21C | inactive | inactive | Active | Active | 6.16% | 87.9% | 5.85% | 0.13% | Active | Active | Active | 4.85 µM | 7.68 µM | 4.82 µM | 8.7 µM | 7.88 µM | hemolysis at 1 h, 100 µM [12]: 17.9%; Activity [14]: Active
2 | CC(C)c1ccc2c(c1)CC[C@H]1[C@](C)(CNC(=S)N[C@@H]3CCCC[C@H]3N3CCCC3)CCC[C@]21C | – | – | Active | Active | 0.64% | 94.6% | 4.73% | 0.01% | Active | Active | Active | 3.39 µM | 4.47 µM | 3.44 µM | 3.59 µM | 4.7 µM | –
3 | CC(C)c1ccc2c(c1)CC[C@H]1[C@](C)(CNC(=S)N[C@H]3CCCC[C@@H]3N3CCCC3)CCC[C@]21C | – | – | Active | Active | 0.35% | 95.1% | 4.53% | 0% | Active | Active | Active | 4.5 µM | 5.76 µM | 4.29 µM | 5.18 µM | 6.57 µM | –
4 | CC(C)c1ccc2c(c1)CC[C@H]1[C@](C)(CNC(=S)N[C@H]3CCCC[C@@H]3N)CCC[C@]21C | inactive | inactive | Active | Active | 8.8% | 81.9% | 9.06% | 0.25% | Active | Active | Active | 3.48 µM | 3.73 µM | 3.05 µM | 3.14 µM | 3.52 µM | Activity [19]: Active; Activity [20]: Active; Activity [21]: Active; Activity [22]: Active; Activity [23]: Active; Activity [24]: Active; Activity [25]: Active; hemolysis at 1 h, 100 µM [12]: 74.4%; Activity [14]: Active
5 | C=C[C@H]1CN2CC[C@H]1C[C@H]2[C@H](O)c1ccnc2ccc(OC)cc12 [QUININE] | – | – | – | – | – | – | – | – | – | – | – | > 50 µM | > 50 µM | > 50 µM | > 50 µM | > 50 µM | Activity [26]: inactive
6 | CC(C)c1ccc2c(c1)CC[C@H]1[C@](C)(C(=O)O)CCC[C@]21C [DEHYDROABIETIC ACID] | – | – | – | – | – | – | – | – | – | – | – | 25.5 µM | 28.4 µM | 25.1 µM | 27.6 µM | 28.1 µM | –
7 | C=CC1CN2CCC1CC2[C@H](NC(=S)NC[C@]1(C)CCC[C@]2(C)c3ccc(C(C)C)cc3CC[C@@H]12)c1ccnc2ccc(OC)cc12 (stereo partly drawn) | inactive | inactive | Active | Active | 6.83% | 89% | 4.01% | 0.12% | Active | Active | inactive | 2.2 µM | 3.21 µM | 2.07 µM | 2.64 µM | 2.98 µM | Activity [19]: Active; Activity [20]: Active; Activity [21]: Active; Activity [22]: Active; Activity [23]: Active; Activity [24]: inactive; Activity [25]: inactive; Activity [27]: Active; Activity [12]: Non-toxic; Activity [26]: inactive
8 | CC(C)c1ccc2c(c1)CC[C@H]1[C@](C)(CNC(=S)N[C@H]3CCCC[C@@H]3N(C)C)CCC[C@]21C | – | – | Active | Active | 0.32% | 92.2% | 7.45% | 0% | Active | Active | Active | 4.32 µM | 5.12 µM | 4.19 µM | 4.62 µM | 5.53 µM | –
9 | C=C[C@H]1C[N@@]2CC[C@H]1C[C@H]2[C@H](O)c1ccnc2ccc(OC)cc12 [QUININE] | – | – | – | – | – | – | – | – | – | – | – | – | – | – | – | – | Activity [12]: Non-toxic
